{
  "source": "patent EP1143981B1",
  "about": "“USE OF N-GLYCOLNEURAMINIC ACID AND ITS DERIVATIVES FOR THE MANUFACTURE OF A MEDICAMENT FOR THE TREATMENT OF HIV INFECTIONS” (Glukor, Inc., priority 1998, dated 2000)",
  "assay_type_in_all_cases": "cell-based",
  "key": {"HIV-1 MN": {"tested_on": "HIV-1 MN", "protocol": "Test groups included uninfected PBMCs, infected PBMCs with no N-glycolylneuraminic acid, and infected PBMCs plus N-glycolylneuraminic acid. […] Excess virus was removed by washing the cells with PBS one time then the cells were exposed to N-glycolylneuraminic acid. P24 output was measured using the DuPont P24 assay kit (optical density (OD) in Table 15). Syncytia formation was examined as well as cytopathic effects (CPE). […] Sample #7 (p24 123x10^6 pg HIV-1P24/ml) was excluded from the mean P24 output calculation due to a sampling error. […]"}, "X4 strain LAI/IIIB": {"tested_on": "X4 strain LAI/IIIB", "experiment": "RT activity in infected PBMCs over 20 days post-infection", "protocol": "Reverse Transcriptase Activity Assay: A microtiter based reverse transcriptase (RT) reaction was utilized as described by Buckheit et al., (1991), AIDS Research and Human Retroviruses, 7:295-302. Tritiated thymidine triphosphate (^3H-TTP) was suspended in distilled H2O at 5 Ci/mL. Poly rA and oligo dT were prepared as a stock solution which was kept at -20°C. RT reaction buffer was prepared fresh on a daily basis and contained 125 µL 1M EGTA, 125 µL dH2O, 110 µL 10% SDS, 50 µL 1M Tris (pH 7.4), 50 µL 1M DTT, and 40 µL 1M MgCl2. These three solutions were mixed together in a ratio of 2 parts ^3H-TTP, 1 part poly rA:oligo dT, and 1 part reaction buffer. Ten microliters of this reaction mixture were placed in a round bottom microtiter plate and 15 µL of virus containing supernatant were added and mixed. The plate was incubated at 37°C in a water bath with a solid support to prevent submersion of the plate and incubated for 60 minutes. After the incubation period, the reaction volume was spotted onto pieces of DE81 paper, washed 5 times for 5 minutes each in a 5% sodium phosphate buffer, 2 times for 1 minute each in distilled water, 2 times for 1 minute each in 70% ethanol, and then dried. Opti-Fluor-O (Packard) was added to each sample and incorporated radioactivity was quantified utilizing a Wallac 1450 MicroBeta Plus liquid scintillation counter. Plates were screened with tetrazolium dye staining as described above.\nPBMCs were treated with dilutions of LUKOR of 1:4, 1:20, 1:100, 1:500, or 1:2500, or concentrations ofN-glycolylneuraminic acid or N-acetylneuraminic acid of 0.4, 1.2, 3.6, 11, or 33µg/ml. No carbohydrates were added to the control sample. RT activity was determined at 3, 6, 9,13, 17, and 20 days post-infection (PI) with X4 strain LAI/IIIB."}, "HIV-1 IIIB": {"tested_on": "HIV-1 IIIB", "experiment": "HIV-1 P24 output, test solutions added post infection", "conditions": "Human immunodeficiency virus 1, IIIB; endpoint of the inhibition; read-out: lowest effective concentration for inhibition of HIV p24 output", "protocol": "In addition, a similar experiment was performed, except that test solutions were added post infection, at the time of plating into the triplicate wells."}},
  "note": "Where two headings read alike, the source gives them in different places.",
  "data": [
    {"smiles": "O=C(CO)N[C@H]1[C@H]([C@H](O)[C@H](O)CO)OC(O)(C(=O)O)C[C@@H]1O", "note": "(stereo partly shown) [N-glycolylneuraminic acid]", "values": [
      {"measurement": "CPE", "setting": "HIV-1 MN; Neu5Gc dilution 1:2", "value": "negative"},
      {"measurement": "O.D.", "setting": "HIV-1 MN; Neu5Gc dilution 1:2", "value": 0.017},
      {"measurement": "P-24", "setting": "HIV-1 MN; Neu5Gc dilution 1:2", "value": "320 picograms HIV-1 p24 per mL"},
      {"measurement": "Syncytia", "setting": "HIV-1 MN; Neu5Gc dilution 1:2", "value": "negative"},
      {"measurement": "CPE", "setting": "HIV-1 MN; Neu5Gc dilution 1:4", "value": "negative"},
      {"measurement": "O.D.", "setting": "HIV-1 MN; Neu5Gc dilution 1:4", "value": 0.043},
      {"measurement": "P-24", "setting": "HIV-1 MN; Neu5Gc dilution 1:4", "value": "922 picograms HIV-1 p24 per mL"},
      {"measurement": "Syncytia", "setting": "HIV-1 MN; Neu5Gc dilution 1:4", "value": "negative"},
      {"measurement": "CPE", "setting": "HIV-1 MN; Neu5Gc dilution 1:8", "value": "negative"},
      {"measurement": "O.D.", "setting": "HIV-1 MN; Neu5Gc dilution 1:8", "value": 0.057},
      {"measurement": "P-24", "setting": "HIV-1 MN; Neu5Gc dilution 1:8", "value": "871 picograms HIV-1 p24 per mL"},
      {"measurement": "Syncytia", "setting": "HIV-1 MN; Neu5Gc dilution 1:8", "value": "negative"},
      {"measurement": "CPE", "setting": "HIV-1 MN; Neu5Gc dilution 1:16", "value": "negative"},
      {"measurement": "O.D.", "setting": "HIV-1 MN; Neu5Gc dilution 1:16", "value": 0.061},
      {"measurement": "P-24", "setting": "HIV-1 MN; Neu5Gc dilution 1:16", "value": "824 picograms HIV-1 p24 per mL"},
      {"measurement": "Syncytia", "setting": "HIV-1 MN; Neu5Gc dilution 1:16", "value": "negative"},
      {"measurement": "CPE", "setting": "HIV-1 MN; Neu5Gc dilution 1:32", "value": "negative"},
      {"measurement": "O.D.", "setting": "HIV-1 MN; Neu5Gc dilution 1:32", "value": 0.012},
      {"measurement": "P-24", "setting": "HIV-1 MN; Neu5Gc dilution 1:32", "value": "265 picograms HIV-1 p24 per mL"},
      {"measurement": "Syncytia", "setting": "HIV-1 MN; Neu5Gc dilution 1:32", "value": "negative"},
      {"measurement": "CPE", "setting": "HIV-1 MN; Neu5Gc dilution 1:64", "value": "negative"},
      {"measurement": "O.D.", "setting": "HIV-1 MN; Neu5Gc dilution 1:64", "value": 0.041},
      {"measurement": "P-24", "setting": "HIV-1 MN; Neu5Gc dilution 1:64", "value": "865 picograms HIV-1 p24 per mL"},
      {"measurement": "Syncytia", "setting": "HIV-1 MN; Neu5Gc dilution 1:64", "value": "negative"},
      {"measurement": "cell viability", "setting": "HIV-1 MN; human, pbmcs", "value": 25, "unit": "%"},
      {"measurement": "Mean p24 output", "setting": "HIV-1 MN; samples treated with N-glycolylneuraminic acid (corrected for dilution factor)", "value": "624± 326", "unit": "pg HIV-1P24/ml"},
      {"measurement": "RT Activity", "setting": "X4 strain LAI/IIIB; 0.4 µg/ml, 3 days PI", "value": 53},
      {"measurement": "RT Activity", "setting": "X4 strain LAI/IIIB; 0.4 µg/ml, 6 days PI", "value": 113},
      {"measurement": "RT Activity", "setting": "X4 strain LAI/IIIB; 0.4 µg/ml, 9 days PI", "value": 1342},
      {"measurement": "RT Activity", "setting": "X4 strain LAI/IIIB; 0.4 µg/ml, 13 days PI", "value": 1371},
      {"measurement": "RT Activity", "setting": "X4 strain LAI/IIIB; 0.4 µg/ml, 17 days PI", "value": 1509},
      {"measurement": "RT Activity", "setting": "X4 strain LAI/IIIB; 0.4 µg/ml, 20 days PI", "value": 1250},
      {"measurement": "RT Activity", "setting": "X4 strain LAI/IIIB; 3.6 µg/ml, 3 days PI", "value": 45},
      {"measurement": "RT Activity", "setting": "X4 strain LAI/IIIB; 3.6 µg/ml, 6 days PI", "value": 44},
      {"measurement": "RT Activity", "setting": "X4 strain LAI/IIIB; 3.6 µg/ml, 9 days PI", "value": 139},
      {"measurement": "RT Activity", "setting": "X4 strain LAI/IIIB; 3.6 µg/ml, 13 days PI", "value": 428},
      {"measurement": "RT Activity", "setting": "X4 strain LAI/IIIB; 3.6 µg/ml, 17 days PI", "value": 1262},
      {"measurement": "RT Activity", "setting": "X4 strain LAI/IIIB; 3.6 µg/ml, 20 days PI", "value": 616},
      {"measurement": "RT Activity", "setting": "X4 strain LAI/IIIB; 11 µg/ml, 3 days PI", "value": 40},
      {"measurement": "RT Activity", "setting": "X4 strain LAI/IIIB; 11 µg/ml, 6 days PI", "value": 75},
      {"measurement": "RT Activity", "setting": "X4 strain LAI/IIIB; 11 µg/ml, 9 days PI", "value": 956},
      {"measurement": "RT Activity", "setting": "X4 strain LAI/IIIB; 11 µg/ml, 13 days PI", "value": 2544},
      {"measurement": "RT Activity", "setting": "X4 strain LAI/IIIB; 11 µg/ml, 17 days PI", "value": 3261},
      {"measurement": "RT Activity", "setting": "X4 strain LAI/IIIB; 11 µg/ml, 20 days PI", "value": 1411},
      {"measurement": "RT Activity", "setting": "X4 strain LAI/IIIB; 33 µg/ml, 3 days PI", "value": 32},
      {"measurement": "RT Activity", "setting": "X4 strain LAI/IIIB; 33 µg/ml, 6 days PI", "value": 75},
      {"measurement": "RT Activity", "setting": "X4 strain LAI/IIIB; 33 µg/ml, 9 days PI", "value": 567},
      {"measurement": "RT Activity", "setting": "X4 strain LAI/IIIB; 33 µg/ml, 13 days PI", "value": 1103},
      {"measurement": "RT Activity", "setting": "X4 strain LAI/IIIB; 33 µg/ml, 17 days PI", "value": 2356},
      {"measurement": "RT Activity", "setting": "X4 strain LAI/IIIB; 33 µg/ml, 20 days PI", "value": 2917},
      {"measurement": "RT activity in treated cells (summary in words)", "setting": "X4 strain LAI/IIIB; all dilutions/concentrations, 3-20 days PI", "value": "RT activity was decreased"},
      {"measurement": "minimal effective concentration", "setting": "HIV-1 IIIB", "value": 0.003, "unit": "µg/mL"}
    ]}
  ]
}
